Results taken from publication PMC11277489, “Novel Piperazine Derivatives of Vindoline as Anticancer Agents” (International Journal of Molecular Sciences, 2024).

Legend:
SiHa cell line = test system: SiHa cell line; design: method as in PMID 32102414; details: cited from earlier work
[1] = test system: 60 human tumor cell lines (NCI60); assay: NCI60 one-dose screen (10 μM), whole panel; assay type: cell-based; details: 10 μM one-dose, NCI60

Row | Structure (SMILES) | IC50 (SiHa cell line) | antiproliferative effect (in words) [1]
1 | CC[C@]12C=CCN3CC[C@@]4(c5ccc(OC)cc5N(C)[C@H]4[C@@](O)(C(=O)OC)[C@@H]1OC(=O)CCCN1CCN(CCCC(=O)O[C@@H]4[C@]5(CC)C=CCN6CC[C@@]7(c8ccc(OC)cc8N(C)[C@H]7[C@@]4(O)C(=O)OC)[C@@H]65)CC1)[C@@H]32 [Compound 4] | 2.85 µM | 
2 | CCC12C=CCN3CCC4(c5cc(N)c(OC)cc5N(C)C4C(O)(C(=O)OC)C1OC(C)=O)C32 (centres unmarked) [Compound 11, 10-aminovindoline] |  | a notable antiproliferative effect was not shown
